Read-outs that look alike come from different tables or passages of the source.
Columns and labels:
Micrococcus flavus [1] = assay: MIC and MBC determination, two-fold serial dilutions assayed for turbidity; type: cell-based
Experimental: (§1) MIC and MBC's were determined as follows: • Two-fold serial dilutions of antibiotic in their respective media were incubated for 16-24h (depending on the bacterial strain) and assayed for turbidity. A tube with a turbid suspension was not inhibited and a clear suspension with the lowest concentration of antibiotic showing no growth was designated MIC. MBC's were checked as follows: 0.01ml of each suspension from tubes showing no growth were added to agar plates and incubated for 48H; the lowest concentration of antibiotic from which no colonies formed was designated MBC.

[2] = tested on: Bordetella bronchiseptica; assay: as above; type: cell-based
Experimental: as §1

E.coli = assay: as above; type: cell-based
Experimental: MIC and MBC's were determined as follows: • Two-fold serial dilutions of antibiotic in their respective media were incubated for 16-24h (depending on the bacterial strain) and assayed for turbidity.
A tube with a turbid suspension was not inhibited and a clear suspension with the lowest concentration of antibiotic showing no growth was designated MIC. MBC's were checked as follows: 0.01ml of each suspension from tubes showing no growth were added to agar plates and incubated for 48H; the lowest concentration of antibiotic from which no colonies formed was designated MBC.
To assay the nitrofurans at a concentration where the maximum sensitivity to E.coli could be achieved MIC's were determined for each compound. […] The respiratory medium was the one described previously at pH7. […] None of the nitrofurans were water soluble so prior to either MIC determination or incubation an accurately weighed sample of each compound was dissolved in 0.4ml DMSO and then 1.6ml H2O was added. When this solution was added to either tubes containing nutrient broth or to the fermentation vessels emulsions resulted. Good stirring minimised the problem in the calorimeter. No compensation was made for DMSO when diluting the samples as high concentrations of DMSO could falsify the results. […] Two types of responses were observed. […] No dependence of MIC on either RMM or power could be observed.

[3] = tested on: Bordetella bronchiseptica; assay: Flow microcalorimetry (p-t curves) of growing culture; type: cell-based
Text: (§2) • a) For B. pumilus a simple glucose/salts medium was employed with a glucose concentration of 0.1 % w/v. • b) For Bord. bronch. The above salts medium was used with the addition of nicotinic acid, methionine and glutamic acid. Glutamic acid was used at a concentration of 0.2% w/v. • c) For M. flavus a semidefined medium was employed, using the same salts as a B. pumilus but also Na-citrate, biotin and protease peptone. In the calorimeter a concentration of 0.4% protease peptone was used. All medium constituents (except protease) were analytical reagents. The calorimetric medium was therefore a final concentration of 100ml of either solution a, b or c freshly autoclaved for 15 mins exactly at 121°C, 151b/sq inch. Glucose was added to the appropriate solution after autoclaving.
(§3) To the vertical face of the vessel close to its base, equidistantly spaced around the circumference, ports were fitted for an oxygen electrode and for sampling/inoculation. The fermenter was closed with a flat flanged glass lid which had five ports accommodating respectively, gas inlet tube, gas exhaust (via air condenser), inlet and outlet flow-lines to and from the calorimeter. The fermenter and lid was sealed with a p.t.f.e. gasket and clamped with a metal clip. The fermenter was placed on a magnetic stirring unit in a water jacket which allowed circulation of the thermostatically controlled water at 30°C or 37°C. The fermenter which contained a Teflon coated magnetic stirring bar, was sterilised by autoclaving.
(§4) For a typical calorimetric incubation the medium was passed through the calorimetric vessel at the same flow rate and temperature as those used in the experiment to establish a steady baseline deflection. The following operations then took place to a strict timetable. The liquid nitrogen stored ampoule was thawed at 38°C for 3 min and then stirred for 20 sec on a whirlimixer. The bacterial suspension (0.5-1.5ml) volumes was inoculated into the medium (100ml) two minutes after completion of thawing. A Gilson automatic pipette was used for inoculation. The calorimeter inlet flow-line was placed in the incubation medium 30 seconds after inoculation. The flowing incubation medium reached the calorimetric vessel two min after inlet flow-line insertion. At this time the recording of the p-t curves was started. Eight min after inoculation the outflow from the calorimeter was returned to the fermenter (after the "baseline" medium had run to waste but before the inoculated medium ran to waste) thus making a closed system. Aeration was started as soon as the inlet tube was inserted in the fermenter. Microbiological purity of the culture was checked by plating out a sample of the culture at the end of each incubation on nutrient agar (lab M).
(§5) The output of calorimetric experiments is a plot of power (energy evolution per unit of time) as a function of time. The unit of power (p) is the Watt (W) and the unit of time is the hour (h). In some experiments seconds (s) were used as time unit.
After successful freezing of Bord. bronch p-t curves for growth in different concentrations of glutamic acid from 0.1%-0.5% were obtained. It was concluded that a medium containing 0.2% glutamic acid would be sufficient for a good deflection in the microcalorimeter minimising the possibility of the bacteria clogging in the microcalorimetric cell or in the teflon tubes leading to and from the microcalorimetric cell. A pH of 7 was used in all the following experiments as this is the optimum pH for polymyxin - lipid binding.
It was of vital importance to maintain a constant oxygen tension; this was achieved by using saturation concentrations of oxygen. It was decided to use the height of the small peak as full scale deflection for the antibiotic assay as the increase in power was exponential up to this point and the peak occurred at a convenient time. This choice of assay point was empirical. The inoculum was 1.1 ± 0.06 x 10^8 cfu/ml for all the microclalorimetric incubations. […]

respiring E.coli = assay: Flow microcalorimetry (p-t curves) of respiring cells in glucose buffer; type: cell-based
Experimental: The respiration experiments were carried out in glucose buffer at different pH.
The nitrofurans only differed in the length of their side chains (e.g. methyl, propyl etc.).
To assay the nitrofurans at a concentration where the maximum sensitivity to E.coli could be achieved MIC's were determined for each compound. […] The respiratory medium was the one described previously at pH7. […] No compensation was made for DMSO when diluting the samples as high concentrations of DMSO could falsify the results.

Bacillus pumilus = assay: Flow microcalorimetry (p-t curves) of growing culture; type: cell-based
Text: as §2, §3, §4, §5
P-t curves of B. pumilus at 30µV full scale deflection (471.15µW) show a logarithmic increase in power. […] After 10h growth the power output was: 17% for 0.05% glucose, 22% for 0.2% glucose and 18% for 0.1% glucose. It was decided to use 0.1% glucose for microcalorimetrically monitored growth experiments, because use of 0.2% glucose could result in the bacterium clumping in the calorimetric chamber or in the Teflon tubes leading to and from the calorimeter. In 0.05% glucose B. pumilus grew slightly slower and to a smaller percentage total deflection than in the 0.1 % glucose incubations. The p-t curve of 0.1 % glucose on 10µV (157.05µW full scale deflection) was obtained.

Micrococcus flavus [4] = assay: as above; type: cell-based; details: bacterial concentration printed '0?'
Text: as §2
To the vertical face of the vessel close to its base, equidistantly spaced around the circumference, ports were fitted for an oxygen electrode and for sampling/inoculation. The fermenter was closed with a flat flanged glass lid which had five ports accommodating respectively, gas inlet tube, gas exhaust (via air condenser), inlet and outlet flow-lines to and from the calorimeter. The fermenter and lid was sealed with a p.t.f.e. gasket and clamped with a metal clip. […]

B. pumilus = assay: MIC determination, two-fold serial dilutions assayed for turbidity; type: cell-based, Bacillus pumilus
Experimental: as §1

[5] = Animal case study, antibiotic treatment of a scratch to the eye; type: in vivo; details: 30 days of treatment, domestic cat with a scratch to the eye
Experimental: A domestic cat was given a mixture of antibiotics as eye drops in response to a scratch to the eye. […] Previously the cat had never been given milk (as many animals are allergic to cow's milk). The cat was now given full cream milk as part of a regimen to promote weight gain (the cat also continued to eat its usual amount of daily cat food throughout the period of weight loss). Initially weight was gained but within 24 hours weight loss resumed (presumably because the pathogenic bacteria/viruses had found a way of utilising lactose). An autopsy indicated bone-cancer as cause of death. The body wasting caused by the weight loss was very similar to that observed in early AIDS cases. However the cat had been regularly vaccinated against HTLV 1 through its 16 year life (and had never been ill in that period).

NC[C@@H]1O[C@H](O[C@H]2[C@@H](O)[C@H](O[C@@H]3[C@@H](O)[C@H](N)C[C@H](N)[C@H]3O[C@H]3O[C@H](CN)[C@@H](O)[C@H](O)[C@H]3N)O[C@@H]2CO)[C@H](N)[C@@H](O)[C@@H]1O.O=S(=O)(O)O [Neomycin sulphate]
MIC (Micrococcus flavus [1]): MIC NEO 4 ug/ml | MIC [2]: MIC NEO 0.25 ug/ml | MBC (E.coli): NEO 5900 ug/ml | MIC (E.coli): 500 µg/mL | MIC (E.coli; listed as NEO): NEO 5900 ug/ml | Observed effect on p-t curves ([3]; 0.25ug/ml added at 50 % of p-t curve): No effect on p-t curve | range of linear dose-response (respiring E.coli; respiration): 10 to 100 µg/mL | Observed effect on p-t curves (respiring E.coli; respiration, 500 ug/ml): Increase in heat output | range of linear relationship between dose and the reciprocal of increase in response from the control curve (respiring E.coli; respiring E.coli): 20 to 100 µg/mL | heat output (respiring E.coli; respiring E.coli, all concentrations): increased heat output | effect on power (respiring E.coli; respiring E.coli, pH 8): caused an increase in power | power output (Bacillus pumilus; 0.5 and 1 x MIC (1-2 µg/ml) added after an increase of 10% of full scale deflection): the same effect was observed | power output (Bacillus pumilus; 0.5 x MIC (1µg/ml) added after a 25% increase power output, 2-4h after addition): massive power output | power output (Bacillus pumilus; added after an increase in power output of 15% of full scale deflection): only marginally larger than that observed for the normal growth curve | heat output (Bacillus pumilus; concentrations of < 1ug/ml or in combinations with other antibiotics, organism not named at this place): increased heat output | power output (Bacillus pumilus; higher concentrations of antibiotic (above 1 x MIC), added after 10% of full scale deflection): a decrease in power output was observed | Observed effect on p-t curves (Micrococcus flavus [4]; 4 ug/ml): No effect on p-t curve | effect at MIC (B. pumilus; 5.1 x 10^6 cfu/ml): bacteriostatic | MIC (B. pumilus; 5.1 x 10^6 cfu/ml, inoculum used in the microcalorimetric incubations): 2 µg/mL | MIC (B. pumilus; inoculum not given): MIC NEO 1 ug/ml | MIC (B. pumilus; inoculum of 1x10^5 cfu/ml): 0.1 µg/mL | effect at MIC (B. pumilus; inoculum of 1x10^5 cfu/ml): bacteriostatic

CN[C@H](CC(C)C)C(=O)N[C@H]1C(=O)N[C@@H](CC(N)=O)C(=O)N[C@H]2C(=O)N[C@H]3C(=O)N[C@H](C(=O)N[C@H](C(=O)O)c4cc(O)cc(O)c4-c4cc3ccc4O)[C@H](O)c3ccc(c(Cl)c3)Oc3cc2cc(c3O[C@@H]2O[C@H](CO)[C@@H](O)[C@H](O)[C@H]2O[C@H]2C[C@](C)(N)[C@H](O)[C@H](C)O2)Oc2ccc(cc2Cl)[C@H]1O [vancomycin]
effect of treatment on the eye [5]: without any effect to the eye

Polymyxin B sulphate
MIC (Micrococcus flavus [1]): POL 2ug/ml | MBC [2]: Ug/ml MIC & MBC 2 ug/ml | MIC [2]: Ug/ml MIC & MBC 2 ug/ml | MIC ([2]; listed as POL): POL 2ug/ml | MBC ([2]; listed as polymyxin B sulphate): 2 µg/mL | MIC ([2]; listed as polymyxin B sulphate): 2 µg/mL | MBC (E.coli): 6.3 µg/mL | MIC (E.coli): 6.3 µg/mL | MBC (E.coli; listed as POL): POL 6.3ug/ml | MIC (E.coli; listed as POL): POL 6.3ug/ml | Observed effect on p-t curves ([3]; 0.07 ug/ml added at 18 % of p-t curve): No effect on growth curve | response ([3]; 0.033 x MIC (0.07 µg/ml)): no response to the antibiotic was observed | Comments ([3]; 0.35 -2 ug/ml added at 18 % of p-t curve): All curves return to baseline confirmed bacteriocidal action | Observed effect on p-t curves ([3]; 0.35 -2 ug/ml added at 18 % of p-t curve, 10 min after addition): Linear log dose response 10 min after addition of antibiotic CV 2.5% | p-t curve ([3]; 0.5 x MIC, within 10 min of addition): sharp decline in heat output | mode of action ([3]; at MIC values): bactericidal | decline of the p-t curve ([3]; concentration larger than 3.5 x MIC): the declines were identical | reversibility of the effect ([3]; most concentrations of antibiotic, decline in power decreased to a baseline value): irreversible | time to observable response after addition of the antibiotic ([3]; usually): ≤ 5 min | Comments (respiring E.coli; respiration, 6.3 ug/ml): Bacteriocidal action demonstrated | Observed effect on p-t curves (respiring E.coli; respiration, 6.3 ug/ml): Reduced height of p-t curve initially and returned to baseline within I hour | sensitivity of the assay (respiring E.coli; respiring E.coli): 3 µg/mL | effect on p-t curve (respiring E.coli; respiring E.coli, pH 7): reduced the initial peak height and thereafter the p-t curve returned to baseline | Observed effect on p-t curves (Bacillus pumilus; 20ug/ml, within 9 hours, bacterial concentration printed '0?'): Within 9 hours growth was inhibited completely | Observed effect on p-t curves (Micrococcus flavus [4]; 2ug/ml): Slightly delayed peak | MIC (B. pumilus; inoculum not given): POL 20 ug/ml
